Experimental data: article PMC3832545 (PLoS ONE, 2013)

Tests used:
female and male rats = details: supra-pharmacological doses, ref [47]; cited from earlier work
Excerpt: However, the in vitro ...

P-Akt (Ser473) = experiment: Signalling in MC38 cells, Western blot P-Akt; format: cell-based, mouse; details: covers both Akt (Ser473) and p70S6K (Thr389)
Protocol: MC38 cells (mouse cell line described by Corbett et al. (1975) and generously provided by Dr. Pnina Brodt, McGill University, Montreal, QC) and MCF-7 cells (ATCC, Manassas, VA, USA), were cultivated in DMEM medium containing 4.5 g/l glucose (Wisent Inc., Montreal, QC, Canada) supplemented with 10% (v/v) fetal bovine serum (FBS, Invitrogen) and 20 μg/ml gentamicin (Sandoz Canada, Boucherville, QC, Canada) (i.e., growth medium). Cells used in animal experiments were trypsinized, washed once in PBS and resuspended in PBS (4°C) at a concentration of 5.0 × 10^6 cells/ml and kept on ice until sc injection in the mice. For signalling experiments MC38 cells were cultivated in growth medium for two days until 80-90% confluent, cell cultures were then rinsed once in PBS (room temperature), and starvation medium (similar to growth medium, except it contained only 0.25% (v/v) FBS and no phenol red) was added for 3 h. […] Each signalling experiment comprised two replicate samples per treatment and three independent experiments were performed. […] Data describing IR and IGF-1R expression in various mouse tissues were analysed in a one-way ANOVA followed by pairwise comparisons between tissues using multiple t-test with Bonferroni correction.

[1] = Mouse C-peptide in plasma after sc injection in DIO-mice; format: in vivo; details: 600 nmol/kg sc, P<0.05
Protocol: Before experiments were initiated, the systemic levels of mouse insulin were measured using a Rat/Mouse Insulin ELISA kit (Millipore Corp., Bilerica, MA, USA), according to manufacturer’s instructions. […] Mouse C-peptide was assayed with Rat/Mouse C-peptide 2 ELISA kit (Millipore), according to manufacturer’s instructions. […] Insulin X10 was measured in mouse plasma using a wash-LOCI assay, as also described recently. See Materials S1 for detailed information regarding these assays.
At termination of experiments whole blood was collected in EDTA-coated tubes (BD Biosciences) by cardiac puncture. Blood plasma was isolated by centrifugation for 10 min at 1500 rpm and thereafter stored at -80 °C until analysis. Mouse C-peptide was assayed with Rat/Mouse C-peptide 2 ELISA kit (Millipore) according to manufacturer’s instructions. […] In initial tests the sensitivity and specificity of the assay in mouse plasma was confirmed. […] After incubation for another 30 min at 21-22 °C chemiluminescence was measured in an Envision plate reader (Perkin Elmer). […] Finally 10 µl of streptavidin coated donor beads were added, incubated as above and immediately after this chemiluminescence was measured using an Envision plate reader. […]

[2] = cited from earlier work
Excerpt: Further studies are needed to clarify if this effect is also observed during other experimental conditions. However, our in vivo data for ...

IGF-1 receptor (IGF-1R) = details: ref [10], [11]; cited from earlier work
insulin receptor (IR) = details: cited from earlier work
[3] = test system: female Sprague Dawley rats; details: rat, in vivo; cited from earlier work

Substance | Incidence of mammary carcinoma and pheochromocytoma (female and male rats) | Increase of phosphorylation of Akt (Ser473) and p70S6K (Thr389) compared to HI (P-Akt (Ser473)) | Levels of C-peptide in plasma 0.5 h after treatment compared to >5 h [1] | Mitogenic potency relative to HI, some cell lines ([2]; ref [10], [13], [46]) | Mitogenic potential relative to HI in vitro ([2]; ref [14]) | Increase of binding affinity to the IGF-1 receptor (vs human insulin) (IGF-1 receptor (IGF-1R)) | Increase of binding affinity to the insulin receptor (vs human insulin) (insulin receptor (IR); ref [10], [11]) | Off-rate from the IR compared to native human insulin (insulin receptor (IR); ref [12]) | Incidence of spontaneous mammary tumors [3]
IGF-1: recombinant human IGF-1 (Increlex, IPSEN Pharma GmbH) | increased the incidence | – | – | – | – | – | – | – | –
insulin analog B10Asp [X10] | – | 35–90% | significantly decreased | 10 fold | 3–15 fold | 3- to 5 fold | 2 fold | decreased off-rate | increased the incidence
human insulin [HI] | – | – | significantly decreased | – | – | – | – | – | –
